According to patent US20260091082A1, “CYCLIC PEPTIDE DERIVATIVE COMPOSITION FOR TREATING OR PREVENTING EYE DISEASE” (DKS Co. Ltd., priority 2022, published 2026):
Several values for one entry are separate records, joined by “and”; a condition that tells them apart may be missing. Identical values can stand only once. Entries after “also recorded” stand apart in the source; their conditions may differ.

Experiments:
[1] = tested on: laser-induced choroidal neovascularization rat model; test: Laser-induced choroidal neovascularization rat model: CNV area in choroidal flat mount (FITC-dextran); format: in vivo; settings: for Area of CNV Lesion, Mean: 14 days 4 times a day, N=10; for Area of CNV Lesion, Mean / Individual Value of CNV Area in Each Animal: 14 days after laser
Experimental: The groups were set as in Table 8 below. Laser irradiation was performed on the right eye in 10 animals in each group. EYLEA (registered trademark) was administered intravitreally into the right eye of individuals in Group 2 immediately after laser irradiation. For the individuals of Groups 1, 3, and 4, eyedrop administration of the administration substances of each group was performed four times a day from the day of laser irradiation to the day before eyeball enucleation.
Animals to be laser-irradiated were subjected to pupil dilation with Mydorin (registered trademark) P ophthalmic solution, and subjected to general anesthesia by intramuscular injection of a mixed solution of ketamine hydrochloride/xylazine hydrochloride (4:1, v/v) (1 mL/kg) into the thigh muscle. Then, fundus of the right eye was then observed using a slit lamp (SL-130, Carl Zeiss Meditec AG), and laser irradiation was performed at six locations using a green laser photocoagulation device (GYC-500, Nidek Co., Ltd.), avoiding thick capillaries of the retina. The laser conditions were a wavelength of 532 nm (green), a spot size of 50 μm, an irradiation time of 0.1 sec, and a laser irradiation intensity of 300 mW. Except for the individuals to be administered EYLEA (registered trademark), sodium hyaluronate (Hyalein (registered trademark) ophthalmic solution 0.3%, Santen Pharmaceutical Co., Ltd.) as an eye drop for treatment of corneal and conjunctival epithelial disorders was instilled into both eyes after laser irradiation.
Levofloxacin hydrate (CRAVIT (registered trademark) 1.5% ophthalmic solution, Santen Pharmaceutical Co., Ltd.) as a broad-spectrum antibacterial eye drop and oxybuprocaine hydrochloride (Benoxil (registered trademark) 0.4% ophthalmic solution, Santen Pharmaceutical Co., Ltd.) as an ophthalmic topical anesthetic were once instilled into the right eye of rats in Group 2 (EYLEA (registered trademark) administration group) after end of laser irradiation, and then EYLEA (registered trademark) was intravitreally administered at a dose of 200 μg/5 μL/eye using a 33 G two-stage injection needle and a microsyringe (Ito Manufacturing Co., Ltd.). The microsyringe was washed with D-PBS before administration. Hyalein (registered trademark) ophthalmic solution 0.3% was instilled into both eyes after intravitreal administration.
Eyedrop administration of the test substance and the negative control administration solution was performed in a volume of 5 μL/eye using a micropipette (Eppendorf Research Plus V, Eppendorf) at the administration period and the number of times determined for each group (see Group constitution table of Item (2)). At that time, since a test substance solution adheres to an outer side of the tip, care was taken so that the adhering test substance solution was wiped off with a Kimwipe once each time of eyedrop administration, and an excessive amount of the test substance solution was not instilled. In addition, although the tip of the pipette tip was sharp, care was taken not to damage the eyeball surface. Immediately before administration, the administration solution was lightly (about several seconds) centrifuged using a small microcentrifuge Wonder Spin, and the supernatant was used for administration.
Fourteen days after laser irradiation (Day 14), under general anesthesia by intramuscular femoral administration (1 mL/kg) of a ketamine hydrochloride/xylazine hydrochloride (4:1, v/v) mixed solution, a 4% FITC-dextran solution was administered to the tail vein at a dose of 40 mg/l mL/animal.
After 1 minute from the tail vein administration of the 4% FITC-dextran solution, rats were euthanized by excessive anesthesia by administration of 129.6 mg/mL sodium pentobarbital solution and the right eye ball was enucleated. The enucleated eyeball was fixed in a 4% paraformaldehyde phosphate buffer (FUJIFILM Wako Pure Chemical Corporation, hereinafter referred to as 4% PFA) for 12 to 30 hours at normal temperature. […]

[2] = Body weight measurement during the CNV rat test; format: in vivo; settings: for Body Weight (Average): 14 days 4 times a day
Experimental: The appearance, behavior, and state of excrement or the like were observed every day.
The body weight was measured on the animal arrival date, the preliminary housing end date (grouping date), the eyedrop administration start date, the laser irradiation date (Day 0), and the eyeball enucleation date (Day 14).

Compound: CC[C@@]1(C)Oc2cc(ccc2O)C[C@H](NC)C(=O)N[C@@H](C(C)C)C(=O)N[C@@H]1C(=O)N[C@@H](CC(=O)O)C(=O)O [Compound 9]
- Area of CNV Lesion, Mean ([1]; Group 3, eye drop 5 μg/5 μL/eye (1 mg/mL)): 471160.8 pixel
- Individual Value of CNV Area in Each Animal ([1]; Group 3 individual animals, eye drop 5 μg/5 μL/eye): 330375.8 pixel and 515551.8 pixel and 492136.5 pixel and 558285.0 pixel and 496494.0 pixel and 466828.5 pixel and 460996.3 pixel and 460127.0 pixel and 449544.0 pixel and 481268.8 pixel
- Area of CNV Lesion, Mean ([1]; Group 4, eye drop 50 μg/5 μL/eye (10 mg/mL)): 444173.4 pixel
- Individual Value of CNV Area in Each Animal ([1]; Group 4 individual animals, eye drop 50 μg/5 μL/eye): 313878.7 pixel and 591175.3 pixel and 382504.5 pixel and 527509.5 pixel and 426003.0 pixel and 447473.0 pixel and 394615.5 pixel and 494652.3 pixel and 438691.5 pixel and 425230.3 pixel
- CNV area compared with Group 1 (saline) / drug efficacy, in words ([1]; eyedrop 1 mg/mL (Group 3) and 10 mg/mL (Group 4), Dunnett's test): no significant difference in CNV area was observed; also recorded: no drug efficacy on CNV area was observed
- Dose dependence of CNV area reduction, in words ([1]; eyedrop 1 mg/mL and 10 mg/mL, 4 times/day for 14 days): reduction in CNV area correlated with the eyedrop administration dose was confirmed
- Body Weight (Average) ([2]; Group 3, eye drop 5 μg/5 μL/eye, Day 0 (Laser injection)): 152.66 g
- Body Weight (Average) ([2]; Group 3, eye drop 5 μg/5 μL/eye, Day 14 (Enucleation)): 184.36 g
- Body Weight (Average) ([2]; Group 3, eye drop 5 μg/5 μL/eye, Day −3 or Day −2 (Grouping)): 141.80 g
- Weight (g) (Individual) ([2]; Group 3 individual animals, eye drop 5 μg/5 μL/eye, Enucleation (Day 14)): 187.51 g and 200.36 g and 188.53 g and 178.12 g and 191.73 g and 185.42 g and 178.06 g and 179.74 g and 187.00 g and 167.09 g
- Weight (g) (Individual) ([2]; Group 3 individual animals, eye drop 5 μg/5 μL/eye, Grouping (Day −3 or −2)): 142.67 g and 150.51 g and 144.41 g and 133.08 g and 140.65 g and 139.40 g and 138.22 g and 145.52 g and 148.31 g and 135.25 g
- Weight (g) (Individual) ([2]; Group 3 individual animals, eye drop 5 μg/5 μL/eye, Laser injection (Day 0)): 156.06 g and 160.40 g and 156.65 g and 141.07 g and 149.62 g and 153.89 g and 146.49 g and 158.03 g and 159.18 g and 145.16 g
- Body Weight (Average) ([2]; Group 4, eye drop 50 μg/5 μL/eye, Day 0 (Laser injection)): 152.84 g
- Body Weight (Average) ([2]; Group 4, eye drop 50 μg/5 μL/eye, Day 14 (Enucleation)): 186.10 g
- Body Weight (Average) ([2]; Group 4, eye drop 50 μg/5 μL/eye, Day −3 or Day −2 (Grouping)): 141.65 g
- Weight (g) (Individual) ([2]; Group 4 individual animals, eye drop 50 μg/5 μL/eye, Enucleation (Day 14)): 171.86 g and 175.04 g and 182.32 g and 197.31 g and 192.55 g and 179.90 g and 198.77 g and 183.99 g and 193.77 g and 185.47 g
- Weight (g) (Individual) ([2]; Group 4 individual animals, eye drop 50 μg/5 μL/eye, Grouping (Day −3 or −2)): 133.40 g and 133.47 g and 138.61 g and 149.89 g and 142.02 g and 140.70 g and 144.50 g and 145.24 g and 149.29 g and 139.35 g
- Weight (g) (Individual) ([2]; Group 4 individual animals, eye drop 50 μg/5 μL/eye, Laser injection (Day 0)): 140.92 g and 141.64 g and 146.31 g and 156.67 g and 152.34 g and 152.92 g and 159.45 g and 160.10 g and 163.58 g and 154.47 g
